Reference: patent publication US20160366888A1, “ENVIRONMENTALLY FRIENDLY FORMULATIONS FOR BI-COMPONENT HETEROCYCLIC SCHIFF BASE TEXTILE FINISHES” (Government of the United States as Represented by the …, priority 2013, published 2016)

What was measured:
B. subtilis = test: Antimicrobial activity (zone of inhibition) of treated cotton fabric; assay type: cell-based; details: aqueous solution applied to cotton fabric; observation over all plates
Source text: (§1) Each aqueous solution prepared and applied to cotton fabric and tested for antimicrobial activity.
(§2) In Table 2, below, “5+” represents a zone of inhibition ranging 41 mm to 50 mm; “4+” represents a zone of 31 mm to 40 mm; “3+” represents a zone of 21 mm to 30 mm; “2+” represents a zone of 11 mm to 20 mm; “1+” represents a zone of 1 mm to 10 mm; and “−” represents no antimicrobial activity noted.
(§3) The American Association of Textile Chemists and Colorists (AATCC) test method 147, Antibacterial Assessment of Textile Materials was used to qualitatively test the biocidal efficacy of pretreatment solutions according to an embodiment of the present invention. Test material was aseptically transferred directly onto the surface of an inoculated nutrient agar slurry. After a specified incubation contact time, the test material was removed and any growth, or lack thereof, beneath the test material surface is recorded.

S. aureus = test: as above; assay type: cell-based; details: aqueous solution applied to cotton fabric; observation over all plates
Source text: as §1, §2, §3

Structure (SMILES) | clearing of plates in words, B. subtilis (B. subtilis) | clearing of plates in words, S. aureus (S. aureus)
Oc1cccc2cccnc12 [8HQ, 8-hydroxyquinoline] | cleared plates 2 | –
O=S(=O)(O)O.Oc1cccc2cccnc12.Oc1cccc2cccnc12 [Quinolinol salt hemisulfate, 8-HQ hemisulfate] | – | Cleared all of
